Measured values reported in patent publication US9150526B2, “Biaryl-propionic acid derivatives and their use as pharmaceuticals” (SANOFI, priority 2013, dated 2015).

These compounds were tested on Recombinant human cathepsin A (assay: Cathepsin A inhibitory activity (Bodipy FL-bradykinin substrate, microfluidic capillary electrophoresis)). Conditions: read-out: CATH A IC50.
Format: biochemical
Protocol: Pharmacological Tests a) Cathepsin a Inhibitory Activity
Recombinant human cathepsin A (residues 29-480, with a C-terminal 10-His tag; R&D Systems, #1049-SE) was proteolytically activated with recombinant human cathepsin L (R&D Systems, #952-CY). Briefly, cathepsin A was incubated at 10 μg/ml with cathepsin L at 1 μg/ml in activation buffer (25 mM 2-(morpholin-4-yl)-ethanesulfonic acid (MES), pH 6.0, containing 5 mM dithiothreitol (DTT)) for 15 min at 37° C.
The activated cathepsin A was diluted in assay buffer (25 mM MES, pH 5.5, containing 5 mM DTT) and mixed with the test compound (dissolved in assay buffer containing (v/v) 3% DMSO) or, in the control experiments, with the vehicle in a multiple assay plate. After incubation for 15 min at room temperature, as substrate then bradykinin carrying an N-terminal ®Bodipy FL (4,4-difluoro-5,7-dimethyl-4-bora-3a,4a-diaza-s-indacene-3-propionyl) label (JPT Peptide Technologies GmbH; dissolved in assay buffer) was added to the mixture. The final concentration of cathepsin A was 833 ng/ml and the final concentration of labeled bradykinin 2 μM. After incubation for 15 min at room temperature the reaction was stopped by the addition of stop buffer (130 mM 2-(4-(2-hydroxy-ethyl)-piperazin-1-yl)-ethanesulfonic acid, pH 7.4, containing (v/v) 0.013% ®Triton X-100, 0.13% Coating Reagent 3 (Caliper Life Sciences), 6.5% DMSO and 20 μM ebelactone B (Sigma, # E0886)).
Uncleaved substrate and product were then separated by a microfluidic capillary electrophoresis on a LabChip® 3000 Drug Discovery System (12-Sipper-Chip; Caliper Life Sciences) and quantified by determination of the respective peak areas. Substrate turnover was calculated by dividing product peak area by the sum of substrate and product peak areas, and the enzyme activity and the inhibitory effect of the test compound thus quantified.

SMILES | IC50 [nM]
COc1ccc(C(C)(C)C)cc1-c1cc(Cl)cc(C(CC(=O)O)c2ncc(C)s2)c1 (centres unmarked) [compound 85] | 55
COc1cc(C(N)=O)ccc1-c1cc(Cl)cc(C(CC(=O)O)c2ncc(C)s2)c1 (centres unmarked) [compound 89] | 118
COc1c(Cl)cccc1-c1cc(Cl)cc(C(CC(=O)O)c2ncc(C)s2)c1 (centres unmarked) [compound 92] | 134
COc1ccc(OC(F)(F)F)cc1-c1cc(Cl)cc(C(CC(=O)O)c2ncc(C)s2)c1 (centres unmarked) [compound 94] | 165
Cc1cnc(C(CC(=O)O)c2cc(Cl)cc(-c3ccccc3OC(F)(F)F)c2)s1 (centres unmarked) [compound 95] | 221
COc1ccc(C(C)C)cc1-c1cccc([C@H](CC(=O)O)c2nnc(C)o2)c1 [compound 108] | 6260
COc1ccccc1-c1cc(F)cc(C(CC(=O)O)c2ncc(C)s2)c1 (centres unmarked) [compound 110] | 116
COc1ccc(C(C)C)cc1-c1cc(F)cc(C(CC(=O)O)c2ncc(C)s2)c1 (centres unmarked) [compound 119] | 195
COc1ccc(-c2cc(F)cc(C(CC(=O)O)c3ncc(C)s3)c2)c(OC)c1 (centres unmarked) [compound 120] | 199
COc1ccc(OC(F)(F)F)cc1-c1cc(F)cc(C(CC(=O)O)c2ncco2)c1 (centres unmarked) [compound 122] | 222
COc1cc(F)ccc1-c1cc(F)cc(C(CC(=O)O)c2ncc(C)s2)c1 (centres unmarked) [compound 123] | 246
COc1ccc(OC(F)(F)F)cc1-c1cc(F)cc(C(CC(=O)O)c2ncc(C)s2)c1 (centres unmarked) [compound 124] | 275
O=C(O)CC(c1cc(F)cc(-c2ccccc2OC(F)(F)F)c1)c1ncco1 (centres unmarked) [compound 130] | 466
COc1cccc(OC)c1-c1cccc(C(CC(=O)O)c2nnc(C)o2)c1 (centres unmarked) [compound 135] | 17
COc1ccc(C)cc1-c1cccc(C(CC(=O)O)c2nnc(C)o2)c1 (centres unmarked) [compound 136] | 24
COc1ccccc1-c1cccc(C(CC(=O)O)c2nnc(C)o2)c1 (centres unmarked) [compound 140] | 61
COc1ccc(CO)cc1-c1cccc(C(CC(=O)O)c2nnc(C)o2)c1 (centres unmarked) [compound 141] | 72
COc1cccc(Cl)c1-c1cccc(C(CC(=O)O)c2nnc(C)o2)c1 (centres unmarked) [compound 142] | 80
COc1ccc(OC(F)(F)F)cc1-c1cccc(C(CC(=O)O)c2nnc(C)o2)c1 (centres unmarked) [compound 143] | 85

SMILES | IC50 [nM]
CCOc1ccccc1-c1cccc(C(CC(=O)O)c2nnc(C)o2)c1 (centres unmarked) [compound 144] | 91
COc1cccc(F)c1-c1cccc(C(CC(=O)O)c2nnc(C)o2)c1 (centres unmarked) [compound 145] | 116
COc1cc(F)ccc1-c1cccc(C(CC(=O)O)c2nnc(C)o2)c1 (centres unmarked) [compound 146] | 129
Cc1nnc(C(CC(=O)O)c2cccc(-c3ccccc3OC(F)(F)F)c2)o1 (centres unmarked) [compound 148] | 243
COc1ccc(S(C)(=O)=O)cc1-c1cccc(C(CC(=O)O)c2nnc(C)o2)c1 (centres unmarked) [compound 149] | 265
COc1c(C)cccc1-c1cccc(C(CC(=O)O)c2nnc(C)o2)c1 (centres unmarked) [compound 151] | 571
COc1ccc2c(c1-c1cc(Cl)cc(C(CC(=O)O)c3nnc(C)o3)c1)OC(C)(C)C2 (centres unmarked) [compound 157] | 17
Cc1nnc(C(CC(=O)O)c2cc(F)cc(-c3ccccc3OC(F)(F)F)c2)o1 (centres unmarked) [compound 165] | 231
COc1cccc(CO)c1-c1cc(F)cc(C(CC(=O)O)c2nnc(C)o2)c1 (centres unmarked) [compound 167] | 400
COc1ccc(OC(F)(F)F)cc1-c1cc(F)cc(C(CC(=O)O)c2nnc(C)o2)c1 (centres unmarked) [compound 168] | 165
COc1ccc(S(C)(=O)=O)cc1-c1cc(Cl)cc(C(CC(=O)O)c2nnc(C)o2)c1 (centres unmarked) [compound 170] | 109
COc1cccc(C(=O)N2CCCC2)c1-c1cc(F)cc(C(CC(=O)O)c2nnc(C)o2)c1 (centres unmarked) [compound 174] | 5260
CCOc1ccccc1-c1cc(F)cc(C(CC(=O)O)c2nnc(C)o2)c1 (centres unmarked) [compound 175] | 104
COc1ccccc1-c1cc(Cl)cc(C(CC(=O)O)c2nnc(C)o2)c1 (centres unmarked) [compound 176] | 10
CCOc1ccccc1-c1cc(Cl)cc(C(CC(=O)O)c2nnc(C)o2)c1 (centres unmarked) [compound 177] | 24
COc1ccc(S(C)(=O)=O)cc1-c1cc(F)cc(C(CC(=O)O)c2nnc(C)o2)c1 (centres unmarked) [compound 178] | 588
COc1cccc(F)c1-c1cc(F)cc(C(CC(=O)O)c2nnc(C)o2)c1 (centres unmarked) [compound 179] | 67
COc1ccc(OC)c(-c2cncc(C(CC(=O)O)c3nnc(C)o3)c2)c1 (centres unmarked) [compound 180] | 3520
COc1ccc(C(C)(C)C)cc1-c1cncc(C(CC(=O)O)c2nnc(C)o2)c1 (centres unmarked) [compound 182] | 452

Continued by falling IC50, values first:

IC50 [nM] | SMILES
4210 | COc1cccc(C(=O)N2CCCC2)c1-c1cc(Cl)cc(C(CC(=O)O)c2nnc(C)o2)c1 (centres unmarked) [compound 171]
2220 | COc1ccc(C)cc1-c1cncc(C(CC(=O)O)c2nnc(C)o2)c1 (centres unmarked) [compound 181]
1030 | COc1ccc(C(C)C)cc1-c1cncc(C(CC(=O)O)c2nnc(C)o2)c1 (centres unmarked) [compound 183]
652 | COc1cccc(C#N)c1-c1cccc(C(CC(=O)O)c2nnc(C)o2)c1 (centres unmarked) [compound 152]
457 | COc1c(F)cc(F)cc1-c1cc(F)cc(C(CC(=O)O)c2ncco2)c1 (centres unmarked) [compound 129]
446 | COc1cccc(C#N)c1-c1cc(F)cc(C(CC(=O)O)c2nnc(C)o2)c1 (centres unmarked) [compound 163]
410 | COc1c(C)cccc1-c1cc(F)cc(C(CC(=O)O)c2ncc(C)s2)c1 (centres unmarked) [compound 128]
325 | COc1cccc(CO)c1-c1cccc(C(CC(=O)O)c2nnc(C)o2)c1 (centres unmarked) [compound 150]
164 | COc1c(C)cccc1-c1cc(Cl)cc(C(CC(=O)O)c2ncc(C)s2)c1 (centres unmarked) [compound 93]
160 | COc1cccc(OC)c1-c1cncc(C(CC(=O)O)c2nnc(C)o2)c1 (centres unmarked) [compound 184]
155 | CCOc1ccc(C)cc1-c1cc(F)cc(C(CC(=O)O)c2ncco2)c1 (centres unmarked) [compound 117]
137 | COc1ccc(-c2cccc(C(CC(=O)O)c3nnc(C)o3)c2)c(OC)c1 (centres unmarked) [compound 147]
131 | COc1c(F)cc(F)cc1-c1cc(Cl)cc(C(CC(=O)O)c2ncc(C)s2)c1 (centres unmarked) [compound 91]
124 | COc1ccc(C(C)(C)C)cc1-c1cc(F)cc(C(CC(=O)O)c2ncc(C)s2)c1 (centres unmarked) [compound 113]
122 | COc1ccc(OC)c(-c2cc(F)cc(C(CC(=O)O)c3ncc(C)s3)c2)c1 (centres unmarked) [compound 112]
119 | COc1cc(F)ccc1-c1cc(Cl)cc(C(CC(=O)O)c2ncc(C)s2)c1 (centres unmarked) [compound 90]
104 | COc1cccc(C#N)c1-c1cc(Cl)cc(C(CC(=O)O)c2nnc(C)o2)c1 (centres unmarked) [compound 156]
103 | COc1cccc(C#N)c1-c1cc(Cl)cc(C(CC(=O)O)c2ncc(C)s2)c1 (centres unmarked) [compound 88]

IC50 [nM] | SMILES
96 | COc1cccc(Cl)c1-c1cc(F)cc(C(CC(=O)O)c2ncc(C)s2)c1 (centres unmarked) [compound 105]
93 | COc1ccc(C(C)C)cc1-c1cc(Cl)cc(C(CC(=O)O)c2ncc(C)s2)c1 (centres unmarked) [compound 87]
89 | Cc1nnc(C(CC(=O)O)c2cc(Cl)cc(-c3ccccc3OC(F)(F)F)c2)o1 (centres unmarked) [compound 158]
89 | COc1ccc(Cl)cc1-c1cc(F)cc(C(CC(=O)O)c2nnc(C)o2)c1 (centres unmarked) [compound 166]
65 | CCOc1ccc(C)cc1-c1cc(Cl)cc(C(CC(=O)O)c2ncc(C)s2)c1 (centres unmarked) [compound 86]
60 | COc1ccc(F)cc1-c1cccc(C(CC(=O)O)c2nnc(C)o2)c1 (centres unmarked) [compound 139]
56 | COc1cccc(F)c1-c1cc(F)cc(C(CC(=O)O)c2ncc(C)s2)c1 (centres unmarked) [compound 101]
53 | COc1cccc(Cl)c1-c1cc(Cl)cc(C(CC(=O)O)c2ncc(C)s2)c1 (centres unmarked) [compound 84]
52 | COc1ccc(C)cc1-c1cc(F)cc(C(CC(=O)O)c2ncc(C)s2)c1 (centres unmarked) [compound 100]
44 | COc1ccc(C(C)C)cc1-c1cc(F)cc(C(CC(=O)O)c2nnc(C)o2)c1 (centres unmarked) [compound 160]
41 | COc1ccc(OC)c(-c2cccc(C(CC(=O)O)c3nnc(C)o3)c2)c1 (centres unmarked) [compound 138]
33 | COc1ccc(-c2cc(Cl)cc(C(CC(=O)O)c3nnc(C)o3)c2)c(OC)c1 (centres unmarked) [compound 172]
28 | COc1cc(C)cc(OC)c1-c1cc(F)cc(C(CC(=O)O)c2ncc(C)s2)c1 (centres unmarked) [compound 99]
25 | COc1ccc(C(C)C)cc1-c1cc(Cl)cc(C(CC(=O)O)c2nnc(C)o2)c1 (centres unmarked) [compound 153]
24 | COc1cc(C)cc(OC)c1-c1cccc(C(CC(=O)O)c2nnc(C)o2)c1 (centres unmarked) [compound 137]
17 | COc1ccc(C)cc1-c1cc(Cl)cc(C(CC(=O)O)c2nnc(C)o2)c1 (centres unmarked) [compound 169]
8 | COc1cc(C)cc(OC)c1-c1cc(Cl)cc(C(CC(=O)O)c2nnc(C)o2)c1 (centres unmarked) [compound 155]
5 | COc1cccc(OC)c1-c1cc(Cl)cc(C(CC(=O)O)c2nnc(C)o2)c1 (centres unmarked) [compound 154]
